Data on one compound can be found in patent publication US11510876B2, “In vivo targeting of extracellular vesicles” (Mayo Foundation for Medical Education and Research, priority 2019, dated 2022).

Structures are written as SMILES.

The test system of test [1] is ^89Zr labeled stem cell derived exosomes. Briefly: Time-lapse PET imaging of the bio-distribution of 89Zr labeled exosomes after methylene blue paw injections (FIG. 12). Format: in vivo, mouse. Here is the method:
FIG. 12 illustrates four time-lapse PET images showing the bio-distribution of injected ^89Zr labeled stem cell derived exosomes in a mouse. Similarly to the experiment illustrated in FIG. 11, stem cell derived exosomes were labeled with ^89Zr, a positron emitter, which allows the exosomes to be tracked within the mouse by PET imaging. Then, the ^89Zr labeled stem cell derived exosomes were injected intravenously into the mouse, and subsequently imaged thirty minutes after the injection, shown in PET image 500. Illustrated in PET image 500, and also the other PET images 502, 504, 506, are “hotspots” of the administered ^89Zr labeled stem cell derived exosomes (homing agent mediated accumulation zones of the ^89Zr labeled exosomes) at specific locations within the mouse (e.g., the heart 510, the liver 512, and the gut 514). […] Thus, the ^89Zr labeled stem cell derived exosomes were effectively homed to the tissue that contained methylene blue. After administering the methylene blue solution, 20 additional hours were lapsed before completing a second imaging of the mouse (at PET image 504). […] Then, immediately after acquiring PET image 504, the mouse was injected with the methylene blue solution at the hind paw (designated numeral 520), opposite the first hind paw injected with methylene blue (designated numeral 516). One hour after the second injection at the opposite hind paw at reference numeral 520, PET image 506 was acquired.

The next test has as its system extracellular vesicles. Briefly: Homing of extracellular vesicles to the target site by an injected homing agent. Format: in vivo. The settings on record: subcutaneous area in foot pad of a mouse, 500 ng also printed as 1.6 nmol. The source says:
We have discovered that non-toxic doses of phenothiazine derivatives or polyethylene glycols are useful for the homing of exogenous extracellular vesicles to specific tissues in the body. This discovery has many potential applications in therapy and diagnosis in its ability to spatially concentrate extracellular vesicles. These methods can improve the homing of extracellular vesicles to diseased tissues, as well as enriched sampling and extraction of extracellular vesicles for diagnostics at low cost. Rather than using extensively modified extracellular vesicles (e.g., with biological and/or chemical modifications), which can be complex and costly, extracellular vesicles can be targeted by using little to no modification of the extracellular vesicles themselves. […] Our initial findings show broad applicability with regard to the extracellular vesicles type/source and the target tissue in the context of homing using phenothiazine derivatives or polyethylene glycols. At present, the homing is effective with as low as 500 ng (1.6 nmol) of methylene blue injected at the target site. In this example, the target site is the subcutaneous area in foot pad of a mouse, with good perfusion of the methylene blue, so the effective amount of methylene blue for extracellular vesicle homing could be much lower than 500 ng (1.6 nmol).

In test [2] the test system is SK-N-SH brain cancer (bone marrow metastasis) derived exosomes. Briefly: PET imaging of methylene blue mediated homing of intravenously injected 89Zr labeled exosomes to the injected hind paw (FIG. 13). The settings on record: 1% methylene blue in hind limb paw 1 h after i.v. exosomes; PET 1 h later; opposite paw (Ringer's only) showed no accumulation. Format: in vivo, mouse. On the procedure: (§1) FIG. 13 illustrates methylene blue was able to home exosomes irrespective of their cellular origin. PET image 550 and 554 was taken one hour after the mouse was intravenously injected (via tail vein) with the ^89Zr labeled A549 lung cancer derived exosomes and SK-N-SH brain cancer (bone marrow metastasis) derived exosomes, respectively. […] Then after one hour, 1% methylene blue (in Lactated Ringer's Solution) was injected in a hind limb paw. The opposite hind limb paw received a methylene blue-free and sterile Lactated Ringer's Solution. One hour after administering the methylene blue solution, the PET image 552 and 556 was taken. […] Thus, the methylene blue homed the ^89Zr labeled A549 and SK-N-SH derived exosomes from circulation showing that it can home extracellular vesicles independent of their cellular origin.

In test [3] the test system is ^89Zr labeled A549 lung cancer derived exosomes. The description is as above. Format: in vivo, mouse. The settings on record: 1% methylene blue in hind limb paw 1 h after i.v. exosomes; PET 1 h later; opposite paw (Ringer's only) showed no accumulation. On the procedure:
as §1

Test [4] concerns ^89Zr labeled stem cell derived exosomes. Briefly: PET imaging of methylene blue mediated homing of intravenously injected 89Zr labeled exosomes to the injected hind paw (FIG. 11). Type of test: in vivo, mouse. The settings on record: 1% methylene blue in Lactated Ringer's Solution injected in hind limb paw 1 h after i.v. exosomes; PET 1 h later; opposite paw (Ringer's only) showed no accumulation. The text has this: FIG. 11 illustrates four PET images of injected ^89Zr labeled exosomes in mice. PET images 450, 452 utilized stem cell derived exosomes, whereas PET images 454, 456 illustrate prostate cancer (PC-3) derived exosomes. Both groups of exosomes were labeled with ^89Zr, a positron emitter, which allows the exosomes to be tracked within the mouse by PET imaging. As illustrated in some or all of the PET images 450, 452, 454, 456, the heart/lungs 460, the liver 462, the gut 464/468 and 466/470 show “hotspots” of the ^89Zr labeled exosomes (homing agent mediated accumulation zones of the ^89Zr labeled exosomes). […] For PET image 452, the ^89Zr labeled stem cell derived exosomes were intravenously injected (via tail vein). Then after one hour, 1% methylene blue (in Lactated Ringer's Solution) was injected in a hind limb paw. The opposite hind limb paw received a methylene blue-free and sterile Lactated Ringer's Solution. One hour after administering the methylene blue solution, the PET image 452 was taken. […] Thus, the methylene blue homed the ^89Zr linked stem cell derived exosomes from circulation, effectively showing that the ^89Zr labeled stem cell derived exosomes targeted methylene blue.

For test [5], the system named is ^89Zr labeled PC-3 derived exosomes. The test is described as above. Format: in vivo, mouse. The settings on record: 1% methylene blue in Lactated Ringer's Solution injected in hind limb paw 1 h after i.v. exosomes; PET 1 h later; opposite paw (Ringer's only) showed no accumulation. Here is the method:
For PET image 456, the ^89Zr labeled PC-3 derived exosomes were intravenously injected (via tail vein). Then after one hour, 1% methylene blue (in Lactated Ringer's Solution) was injected in a hind limb paw. The opposite hind limb paw received a methylene blue-free and sterile Lactated Ringer's Solution. One hour after administering the methylene blue solution, the PET image 456 was taken. […] Thus, methylene blue homed the ^89Zr labeled PC-3 derived exosomes from circulation to the paw region, effectively showing that the ^89Zr labeled PC-3 derived exosomes targeted methylene blue.

As to `CN(C)c1ccc2nc3ccc(=[N+](C)C)cc-3sc2c1` [methylene blue], the “homing of exosomes to methylene blue injection sites (PET image 502)” value in test [1] (1% methylene blue injected in a hind paw and a front paw 19 hours after i.v. exosomes, imaged 3 h post-methylene blue injection) is “homing of exosome to hind paw”. Also, the “signal from exosomes at methylene blue injection sites (PET image 504)” value in test [1] (20 additional hours after the methylene blue injection, hind paw and front paw) is listed as “persistence of signal”. Further, in test [1] (second methylene blue injection about two days after exosome injection, PET one hour later), the “accumulation of exosomes at second methylene blue injection site, opposite hind paw (PET image 506)” value is “accumulated at the target site 520”. For the same compound, the “lowest amount at which homing is effective” value with extracellular vesicles is 500 ng. Moreover, the “accumulation of ^89Zr labeled SK-N-SH derived exosomes in the hind paw that received methylene blue (PET image 556)” value in test [2] is recorded as “significant accumulation”. The “accumulation of ^89Zr labeled A549 derived exosomes in the hind paw that received methylene blue (PET image 552)” value in test [3] is “significant accumulation”. In addition, the “accumulation of ^89Zr labeled stem cell derived exosomes in the hind paw that received methylene blue” value in test [4] is given as “significant accumulation”. Further, the “accumulation of ^89Zr labeled PC-3 derived exosomes in the hind paw that received methylene blue” value in test [5] is “significant accumulation”.
